These results are taken from ChEMBL document CHEMBL4354883, “Design, Synthesis, and Biological Evaluation of HSP90 Inhibitor-SN38 Conjugates for Targeted Drug Accumulation” (J Med Chem, 2020).

Active and inactive are the calls of the source. The calls are words filed in the database; no cut-off is given here.

A short description of series [1]: Drug uptake in human A549 cells assessed as maximum emission peaks at 430 nm at 5 uM by fluorescence emission spectral analysis. The class given is ADME, cell-based. As to conditions: a549, 5 µM.
For another series, the system named is L02. Kind of series: Cytotoxicity agains human HL7702 cells assessed as reduction in cell viability after 72 hrs by SRB assay. As to conditions: L02, 72 h. The class given is cell-based. (In general: In SRB staining, fixed cells bind dye roughly in proportion to their protein.)
In another series the test system is CAPAN-1. Kind of series: Antiproliferative activity against human Capan1 cells assessed as reduction in cell viability after 72 hrs by SRB assay. The class given is functional, cell-based. As to conditions: CAPAN-1, 72 h.
Series [2] relates to Mus musculus. Kind of series: In vivo inhibition of HSP90 in mouse xenografted with human Capan1 cells assessed as decrease in AKT protein expression at 36 mg/kg, iv for every 2 days measured at 2 hrs post last dose by Western blot analysis. The class given is functional, organism-based. For orientation: In xenograft studies the graft and the host belong to different species.

Series [3] concerns A549. Kind of series: Downregulation of TOP1 expression in human A549 cells after 24 hrs by Western blot analysis. In kind it is functional, cell-based. (In general: In western blotting, separated proteins are transferred to a membrane and probed.)
Series [4] deals with Mus musculus. Put plainly: In vivo inhibition of topoisomerase 1 in mouse xenografted with human Capan1 cells assessed as increase in phosphorylated KAP1 expression at 36 mg/kg, iv for every 2 days measured at 2 hrs post last dose by Western blot analysis. The class given is functional, organism-based.
Series [5] relates to HCT-116. Kind of series: Downregulation of TOP1 expression in human HCT116 cells after 24 hrs by Western blot analysis. The class given is functional, cell-based.
The test system of series [6] is Mus musculus. Kind of series: Down regulation of topoisomerase 1 expression in mouse xenografted with human Capan1 cells at 36 mg/kg, iv for every 2 days measured at 2 hrs post last dose by Western blot analysis. In kind it is functional, organism-based.
A short description of series [7]: Prodrug release in mouse plasma xenografted with human HCT116 cells assessed as increase in 7-ethyl-10-hydroxycamptothecin level at 15 mg/kg, iv administered as single dose and measured after 30 mins to 72 hrs by LC-MS/MS analysis. The class given is ADME, organism-based. As to conditions: in vivo.
For series [8], the system named is HCT-116. Put plainly: Antiproliferative activity against human HCT116 cells assessed as reduction in cell viability after 72 hrs by SRB assay. The class given is functional, cell-based. As to conditions: HCT-116, 72 h.
For series [9], the system named is A549. Kind of series: Antiproliferative activity against human A549 cells assessed as reduction in cell viability after 72 hrs by SRB assay. The class given is functional, cell-based. As to conditions: A549, 72 h.
Series [10] is described as follows: Prodrug release in tumor of mouse xenografted with human Capan1 cells assessed as increase in 7-ethyl-10-hydroxycamptothecin level at 36 mg/kg, iv after 24 hrs by LC-MS/MS analysis. As to conditions: in vivo. In kind it is ADME, organism-based, Neoplasm.
A short description of series [11]: Drug uptake in human A549 cells assessed as blue fluorescence at 5 uM after 12 hrs by confocal laser scanning microscopic analysis. The class given is ADME, cell-based. As to conditions: a549, 12 h.
A further series concerns MIA PaCa-2. Put plainly: Antiproliferative activity against human MIAPaCa2 cells assessed as reduction in cell viability after 72 hrs by SRB assay. The class given is functional, cell-based. As to conditions: MIA PaCa-2, 72 h.
Series [12] can be described thus: Drug uptake in human A549 cells assessed as blue shift in absorption spectrum at 5 uM by UV-visible absorption spectral analysis. In kind it is ADME, cell-based. As to conditions: a549, 5 µM.
A short description of series [13]: Prodrug release in tumor of mouse xenografted with human HCT116 cells assessed as increase in 7-ethyl-10-hydroxycamptothecin level at 15 mg/kg, iv administered as single dose by LC-MS/MS analysis. As to conditions: in vivo. In kind it is ADME, organism-based, Neoplasm.
For series [14], the system named is Mus musculus. Kind of series: In vivo inhibition of HSP90 in mouse xenografted with human Capan1 cells assessed as increase in HSP70 protein expression at 36 mg/kg, iv for every 2 days measured at 2 hrs post last dose by Western blot analysis. The class given is functional, organism-based.

As for `CCc1c2c(nc3ccc(OC(=O)N4CCC(N5CCCCC5)CC4)cc13)-c1cc3c(c(=O)n1C2)COC(=O)[C@]3(O)CC` [IRINOTECAN], the Drug uptake result in series [1] was “Active”; in series [11], “Not Active”; in [12] it was “Active”. In addition, the concentration for half-maximal inhibition (IC50) with L02 amounted to 1.3 µM; in the series with CAPAN-1 it was 1.12 µM; in the series with HCT-116 [8], 0.498 µM; in the series with A549 [9], 1.56 µM; with MIA PaCa-2 it was 1.33 µM. In addition, the inhibition result with Mus musculus [2] and in the series with Mus musculus [14] was “inactive” each time. In addition, the TOP1 downregulation result with A549 [3] was “Active”. Moreover, the inhibition result with Mus musculus [4], in the series on HCT-116 [5] and in the series on Mus musculus [6] was “Active” each time. Besides, the Drug metabolism result in series [7] is recorded as “Metabolite_Detected”; in series [10], “Metabolite_Notdetected”; in series [13] it was “Metabolite_Detected”.

As a reminder, the IC50 is the midpoint of a concentration-inhibition curve.
